US10201564B2, “Methods of using inhaled nitric oxide gas for treatment of acute respiratory distress syndrome in children” (Mallinckrodt Hospital Products IP Limited, priority 2014, dated 2019)

Test system: pediatric subjects with acute hypoxemic respiratory failure (AHRF)
Assay: Pediatric AHRF study: respiratory values (oxygen status, HFOV, CMV, ABG)
Type: in vivo, human
Conditions: 5 ppm
Method: Standardized ventilatory management and weaning procedures were used. Ventilatory management was used based on an “open lung approach” using positive end-expiratory pressure (PEEP) to increase lung volume and limiting tidal volumes to reduce plateau pressures. Subjects received nitric oxide for inhalation at 5 ppm or placebo (100% Grade 5 nitrogen gas) into the inspiratory limb of the ventilator circuit using a blinded version of the INOvent® delivery system. The subjects were treated until Day 28 or extubation, whichever occurred first. Subjects were assessed daily using a spontaneous breathing trial, according to the institution's standard of care. Arterial blood gases (ABG), ventilator settings, methemoglobin, oxygenation index, systolic blood pressure, diastolic blood pressure, Pediatric Risk of Mortality (PRISM) III score, and subject positioning (prone or supine) were performed/recorded at specified times during the study. Selected centers also performed plasma cytokine assays, bronchoalveolar lavage fluid (BALF) assays, and a 6-month follow-up assessment.
The following assessments were made at baseline: arterial blood gases, ventilator settings, methemoglobin, prone position, PRISM III score, oxygenation index, systolic and diastolic blood pressure, bronchoalveolar lavage fluid assay and plasma cytokine.
The following assessments were made at 4 hours±1 hour after the start of therapy: arterial blood gases, ventilator settings and methemoglobin.
The following assessments were made at 12 hours±2 hours after the start of therapy: arterial blood gases and ventilator settings.
The following assessments were made at 24 hours±2 hours after the start of therapy: arterial blood gases, ventilator settings, methemoglobin, systolic and diastolic blood pressure and plasma cytokine.
Oxygen status was determined at screening only. Respiratory values in the HFOV category were obtained at baseline, 4 hours, 12 hours, and 24 hours. Respiratory values in the categories conventional mechanical ventilation [CMV] and ABG were obtained at baseline, 4 hours, 12 hours, 24 hours, and at extubation.

## [N]=O [Nitric Oxide, nitric oxide]
4 Hours
  ABG BE, Mean (SD): 0.7 (4.1) mEq/L
  ABG BE, Median: 1.0 mEq/L
  ABG HCO3, Mean (SD): 25.7 (3.9) mEq/L
  ABG HCO3, Median: 25.8 mEq/L
  ABG PaCO2, Mean (SD): 46.0 (18.2) mmHg
  ABG PaCO2, Median: 43.0 mmHg
  ABG PaO2, Mean (SD): 83.2 (22.6) mmHg
  ABG PaO2, Median: 78.5 mmHg
  ABG SaO2, Mean (SD): 95.7 (2.9) %
  ABG SaO2, Median: 95.9%
  ABG pH, Mean (SD): 7.4 (0.1)
  ABG pH, Median: 7.4
12 Hours
  ABG BE, Mean (SD): 1.1 (4.1) mEq/L
  ABG BE, Median: 2.0 mEq/L
  ABG HCO2, Mean (SD): 26.7 (4.1) mEq/L
  ABG HCO2, Median: 27.0 mEq/L
  ABG PaCO2, Mean (SD): 47.4 (8.3) mmHg
  ABG PaCO2, Median: 48.4 mmHg
  ABG PaO2, Mean (SD): 68.7 (20.9) mmHg
  ABG PaO2, Median: 68.0 mmHg
  ABG SaO2, Mean (SD): 93.1 (3.2) %
  ABG SaO2, Median: 94.0%
  ABG pH, Mean (SD): 7.4 (0.1)
  ABG pH, Median: 7.4
24 Hours
  ABG BE, Mean (SD): 2.3 (3.8) mEq/L
  ABG BE, Median: 2.8 mEq/L
  ABG HCO3, Mean (SD): 30.6 (14.1) mEq/L
  ABG HCO3, Median: 28.0 mEq/L
  ABG PaCO2, Mean (SD): 47.2 (11.5) mmHg
  ABG PaCO2, Median: 45.4 mmHg
  ABG PaO2, Mean (SD): 71.4 (16.8) mmHg
  ABG PaO2, Median: 69.0 mmHg
  ABG SaO2, Mean (SD): 92.2 (5.4) %
  ABG SaO2, Median: 93.0%
  ABG pH, Mean (SD): 7.4 (0.1)
  ABG pH, Median: 7.4
Baseline
  ABG BE, Mean (SD): 0.2 (5.3) mEq/L
  ABG BE, Median: 0.4 mEq/L
  ABG HCO3, Mean (SD): 25.6 (5.0) mEq/L
  ABG HCO3, Median: 26.0 mEq/L
  ABG PaCO2, Mean (SD): 45.3 (11.1) mmHg
  ABG PaCO2, Median: 46.5 mmHg
  ABG PaO2, Mean (SD): 67.5 (13.1) mmHg
  ABG PaO2, Median: 63.0 mmHg
  ABG SaO2, Mean (SD): 92.8 (3.5) %
  ABG SaO2, Median: 92.0%
  ABG pH, Mean (SD): 7.4 (0.1)
  ABG pH, Median: 7.4
Extubation Criteria
  ABG BE, Mean (SD): 5.0 (2.6) mEq/L
  ABG BE, Median: 4.0 mEq/L
  ABG HCO3, Mean (SD): 30.2 (2.8) mEq/L
  ABG HCO3, Median: 31.0 mEq/L
  ABG PaCO2, Mean (SD): 47.5 (8.4) mmHg
  ABG PaCO2, Median: 44.0 mmHg
  ABG PaO2, Mean (SD): 91.8 (42.3) mmHg
  ABG PaO2, Median: 78.0 mmHg
  ABG SaO2, Mean (SD): 94.6 (5.9) %
  ABG SaO2, Median: 96.0%
  ABG pH, Mean (SD): 7.4 (0.1)
  ABG pH, Median: 7.4
Screening
  Oxygen Status Oxygen Index 1, Mean (SD): 22.2 (8.2)
  Oxygen Status Oxygen Index 1, Median: 21.3
  Oxygen Status Oxygen Index 2, Mean (SD): 22.7 (7.9)
  Oxygen Status Oxygen Index 2, Median: 23.0
